Results as given in patent US20230146455A1, “TREATMENT OF INFLAMMATORY DISEASES WITH PEPTIDES AND PHARMACEUTICAL COMPOSITIONS” (Yuyu Pharma, Inc., priority 2020, published 2023).
“And” between values parts separate entries of the source, which are not always exact repeats. Identical values can stand only once. Where a SMILES comes first, the peptide text is derived from it. [ ]: non-standard residue; d: D form. Hyp = O=C(O)[C@@H]1C[C@@H](O)CN1

Key:
[1] = tested on: IL-1 alpha; test: Example 9 Luminex, LPS hPBMCs: IL-1 alpha; type: cell-based, human; conditions: IL-1 alpha, replicates and Mean
Description: (§1) Treatment Human PBMCs were pretreated with YY-101, YDE-011 and YDE-043 or reference compound; Xiidra® at various concentration (ranging from 1 nM to 100 uM) for 2 h before stimulation. An equal volume of 0.5% DMSO was used as a vehicle control. Then, the cells were treated with LPS at 5 ug/ml. The supernatants from treated cells were harvested at 24 h and placed in a 96 well for Luminex cytokine & chemokine profiling using a Luminex 200 multiplex assay (Luminex; R&D system, USA).
(§2) The main study arm with triplicate wells per group in a 24-well plate: • 1. Blank • 2. PBMC: 0.5% DMSO • 3. PBMC+LPS (5 ug/ml) • 4. PBMC+YY-101 100 uM • 5. PBMC+YY-101 10 uM • 6. PBMC+YY-101 1 uM • 7. PBMC+YY-101 0.1 uM • 8. PBMC+YY-101 0.01 uM • 9. PBMC+LPS (5 ug/ml)+Xiidra®100 uM • 10. PBMC+LPS (5 ug/ml)+Xiidra® 10 uM • 11. PBMC+LPS (5 ug/ml)+Xiidra® 1 uM • 12. PBMC+LPS (5 ug/ml)+Xiidra®0.1 uM • 13. PBMC+LPS (5 ug/ml)+Xiidra®0.01 uM • 14. PBMC+LPS (5 ug/ml)+Xiidra®0.001 uM • 15. PBMC+LPS (5 ug/ml)+YY-101 100 uM • 16. PBMC+LPS (5 ug/ml)+YY-101 10 uM • 17. PBMC+LPS (5 ug/ml)+YY-101 1 uM • 18. PBMC+LPS (5 ug/ml)+YY-101 0.1 uM • 19. PBMC+LPS (5 ug/ml)+YY-101 0.01 uM • 20. PBMC+LPS (5 ug/ml)+YY-101 0.001 uM • 21. PBMC+LPS (5 ug/ml)+YDE-011 100 uM • 22. PBMC+LPS (5 ug/ml)+YDE-011 10 uM • 23. PBMC+LPS (5 ug/ml)+YDE-011 1 uM • 24. PBMC+LPS (5 ug/ml)+YDE-011 0.1 uM • 25. PBMC+LPS (5 ug/ml)+YDE-011 0.01 uM • 26. PBMC+LPS (5 ug/ml)+YDE-011 0.001 uM • 27. PBMC+LPS (5 ug/ml)+YDE-043 100 uM • 28. PBMC+LPS (5 ug/ml)+YDE-043 10 uM • 29. PBMC+LPS (5 ug/ml)+YDE-043 1 uM • 30. PBMC+LPS (5 ug/ml)+YDE-043 0.1 uM • 31. PBMC+LPS (5 ug/ml)+YDE-043 0.01 uM • 32. PBMC+LPS (5 ug/ml)+YDE-043 0.001 uM
(§3) Multiplex assay was used to measure 30 cytokines and chemokines. The 1:2, 1:10 and 1:200 diluted cell supernatant and serial dilution of the standard were dispensed into a 96 well plate at 50 ul/well. Then, the pre-mixed cocktail of antibody-coated magnetic beads was dispensed at 50 ul/well and incubated at room temperature for 2 h in a horizontal orbital microplate shaker at 800±500 rpm. The beads were washed using a magnetic device to prevent loss. The biotin-antibody was dispensed in 50 ul of each well and incubated at room temperature for 1 h in a shaker at 800±500 rpm. After washing, streptavidin-PE was added at 50 ul/well and incubated at room temperature for 30 min in a shaker under the same conditions. Finally, after washing, wash buffer (100 ul/well) was added to the plate and incubated in a shaker for 2 min. The Luminex™ 200 setting were set according to the manufacturer's protocol. The data was calculated with a standard five-parameter logistic nonlinear regression analysis of the data (xPonent software 4.2, USA). The levels of cytokine/chemokine are normalized to the live cell counts (1×10^5 cells/mL) and presented as concentrations per mL (pg/mL or ng/mL).

[2] = tested on: IL-6; test: Example 9 Luminex, LPS hPBMCs: IL-6; type: cell-based, human; conditions: Bead IL-6, PBMC + LPS(5 ug/ml)
Description: as §1, §2, §3

[3] = PBMC + LPS(5 ug/ml) + YDE011 0.001 uM
[4] = PBMC + LPS(5 ug/ml) + YDE011 0.001 uM, mean
[5] = PBMC + LPS(5 ug/ml) + YDE011 0.01 uM
[6] = PBMC + LPS(5 ug/ml) + YDE011 0.01 uM, mean
[7] = PBMC + LPS(5 ug/ml) + YDE011 0.1 uM
[8] = PBMC + LPS(5 ug/ml) + YDE011 0.1 uM, mean
[9] = PBMC + LPS(5 ug/ml) + YDE011 1 uM
[10] = PBMC + LPS(5 ug/ml) + YDE011 1 uM, mean
[11] = PBMC + LPS(5 ug/ml) + YDE011 10 uM
[12] = PBMC + LPS(5 ug/ml) + YDE011 10 uM, mean
[13] = PBMC + LPS(5 ug/ml) + YDE011 100 uM
[14] = PBMC + LPS(5 ug/ml) + YDE011 100 uM, mean

CC(C)C[C@H](NC(=O)CNC(=O)[C@H](CC(C)C)NC(=O)[C@H](CCC(N)=O)NC(=O)CNC(=O)[C@@H]1C[C@@H](O)CN1)C(=O)N[C@@H](C)C(=O)NCC(=O)N1CCC[C@H]1C(=O)N[C@@H](CCCCN)C(=O)O [YDE-011] (H-[Hyp]GQLGLAGPK-OH)
Concentration [1, 3]: 336.1 pg/mL and 335.4 pg/mL and 361.1 pg/mL | conc/live cell [1, 3]: 74.7 pg/10^5 and 57.8 pg/10^5 and 62.3 pg/10^5 | Concentration [1, 4]: 344.2 pg/mL | conc/live cell [1, 4]: 64.9 pg/10^5 | Concentration [1, 5]: 359.2 pg/mL and 381.8 pg/mL and 342.8 pg/mL | conc/live cell [1, 5]: 57.9 pg/10^5 and 74.9 pg/10^5 and 54.4 pg/10^5 | Concentration [1, 6]: 361.3 pg/mL | conc/live cell [1, 6]: 62.4 pg/10^5 | Concentration [1, 7]: 332.4 pg/mL and 312.9 pg/mL and 347.3 pg/mL | conc/live cell [1, 7]: 50.4 pg/10^5 and 62.6 pg/10^5 and 60.9 pg/10^5 | Concentration [1, 8]: 330.9 pg/mL | conc/live cell [1, 8]: 58.0 pg/10^5 | Concentration [1, 9]: 349.2 pg/mL and 321.1 pg/mL and 345.8 pg/mL | conc/live cell [1, 9]: 63.5 pg/10^5 and 66.9 pg/10^5 and 72.0 pg/10^5 | Concentration [1, 10]: 338.7 pg/mL | conc/live cell [1, 10]: 67.5 pg/10^5 | Concentration [1, 11]: 356.2 pg/mL and 327.9 pg/mL and 345.8 pg/mL | conc/live cell [1, 11]: 66.0 pg/10^5 and 56.5 pg/10^5 and 73.6 pg/10^5 | Concentration [1, 12]: 343.3 pg/mL | conc/live cell [1, 12]: 65.4 pg/10^5 | Concentration [1, 13]: 446.4 pg/mL and 402.2 pg/mL and 436.1 pg/mL | conc/live cell [1, 13]: 73.2 pg/10^5 and 65.9 pg/10^5 and 72.7 pg/10^5 | Concentration [1, 14]: 428.2 pg/mL | conc/live cell [1, 14]: 70.6 pg/10^5 | Concentration ([2]; 0.001 uM, Mean): 6729.3 pg/mL | MFI ([2]; 0.001 uM, Mean): 186.6 | conc/live cell ([2]; 0.001 uM, Mean): 1268.0 pg/10^5 | Concentration ([2]; 0.001 uM, single replicates): 6493.4 pg/mL and 6683.4 pg/mL and 7011.0 pg/mL | MFI ([2]; 0.001 uM, single replicates): 179.8 and 185.3 and 194.8 | conc/live cell ([2]; 0.001 uM, single replicates): 1443.0 pg/10^5 and 1152.3 pg/10^5 and 1208.8 pg/10^5 | Concentration ([2]; 0.01 uM, Mean): 7097.0 pg/mL | MFI ([2]; 0.01 uM, Mean): 197.3 | conc/live cell ([2]; 0.01 uM, Mean): 1218.8 pg/10^5 | Concentration ([2]; 0.01 uM, single replicates): 7131.5 pg/mL and 6924.8 pg/mL and 7234.7 pg/mL | MFI ([2]; 0.01 uM, single replicates): 198.3 and 192.3 and 201.3 | conc/live cell ([2]; 0.01 uM, single replicates): 1150.2 pg/10^5 and 1357.8 pg/10^5 and 1148.4 pg/10^5 | Concentration ([2]; 0.1 uM, Mean): 6700.6 pg/mL | MFI ([2]; 0.1 uM, Mean): 185.8 | conc/live cell ([2]; 0.1 uM, Mean): 1180.6 pg/10^5 | Concentration ([2]; 0.1 uM, single replicates): 6458.9 pg/mL and 6907.6 pg/mL and 6735.2 pg/mL | MFI ([2]; 0.1 uM, single replicates): 178.8 and 191.8 and 186.8 | conc/live cell ([2]; 0.1 uM, single replicates): 978.6 pg/10^5 and 1381.5 pg/10^5 and 1181.6 pg/10^5 | Concentration ([2]; 1 uM, Mean): 6838.4 pg/mL | MFI ([2]; 1 uM, Mean): 189.8 | conc/live cell ([2]; 1 uM, Mean): 1364.4 pg/10^5 | Concentration ([2]; 1 uM, single replicates): 6821.4 pg/mL and 7217.5 pg/mL and 6476.2 pg/mL | MFI ([2]; 1 uM, single replicates): 189.3 and 200.8 and 179.3 | conc/live cell ([2]; 1 uM, single replicates): 1240.3 pg/10^5 and 1503.6 pg/10^5 and 1349.2 pg/10^5 | Concentration ([2]; 10 uM, Mean): 6769.7 pg/mL | MFI ([2]; 10 uM, Mean): 187.8 | conc/live cell ([2]; 10 uM, Mean): 1286.9 pg/10^5 | Concentration ([2]; 10 uM, single replicates): 6890.4 pg/mL and 6700.7 pg/mL and 6717.9 pg/mL | MFI ([2]; 10 uM, single replicates): 191.3 and 185.8 and 186.3 | conc/live cell ([2]; 10 uM, single replicates): 1276.0 pg/10^5 and 1155.3 pg/10^5 and 1429.3 pg/10^5 | Concentration ([2]; 100 uM, Mean): 7572.5 pg/mL | MFI ([2]; 100 uM, Mean): 211.1 | conc/live cell ([2]; 100 uM, Mean): 1247.9 pg/10^5 | Concentration ([2]; 100 uM, single replicates): 7801.4 pg/mL and 7715.7 pg/mL and 7200.3 pg/mL | MFI ([2]; 100 uM, single replicates): 217.8 and 215.3 and 200.3 | conc/live cell ([2]; 100 uM, single replicates): 1278.9 pg/10^5 and 1264.9 pg/10^5 and 1200.1 pg/10^5
